# From patent US20040242487A1, “Regulation of eating behavior” (Joslin Diabetes Center, Inc., a Massachusetts corporation, priority 1995, published 2004)
# “Also recorded” adds a separate entry of the source.
# Assays:
# [1] = molecular target: T1, MC3-R (Mus musculus, UniProt P33033); test: HEK-293 assay: ACTH binding to MC3-R after exposure to MCH; format: cell-based; conditions: HEK-293 cells stably transfected with MC3-R; exposure to 10^-7 M MCH for 20 minutes or overnight
# T1 construct: expressed in transfected cells; host or cells: HEK-293 (human kidney), stably transfected
# Description: As discussed herein, heterologous human kidney, HEK-293 cells stably transfected with a plasmid carrying MC3-R can be used to assay MCH activity. It is not clear whether the MCH interaction with the MC3-R receptor is direct or indirect, but application of MCH results in an increase in binding of ACTH to the MC3-R receptor. […] Exposure of cells to 10^-7 M MCH for 20 minutes or overnight results in a 15-100% increase in ACTH binding.
# [2] = system: rat; test: In vivo rodent brain assay: intraventricular injection, eating behavior; conditions: intraventricular (third ventricle) injection of 5 μg MCH in 5 μl phosphate buffered saline, versus saline controls
# Source text: As discussed herein, rodents, e.g., rats, can be used to assay MCH activity in vivo. A Teflon catheter can be inserted into the third ventricle of a rat and cemented into place. MCH or its analogs, e.g., agonists or antagonists, can be introduced by way of the catheter at various concentrations, and their effect on eating behavior determined.
# To further evaluate the importance of MCH as an appetite regulator, a Teflon catheter was inserted into the third ventricle of a rat and cemented into place, followed by intraventricular injection of 5 μg of MCH in 5 μl of phosphate buffered saline. Control animals received only phosphate buffered saline.
# T1 sequence (P33033 whole entry): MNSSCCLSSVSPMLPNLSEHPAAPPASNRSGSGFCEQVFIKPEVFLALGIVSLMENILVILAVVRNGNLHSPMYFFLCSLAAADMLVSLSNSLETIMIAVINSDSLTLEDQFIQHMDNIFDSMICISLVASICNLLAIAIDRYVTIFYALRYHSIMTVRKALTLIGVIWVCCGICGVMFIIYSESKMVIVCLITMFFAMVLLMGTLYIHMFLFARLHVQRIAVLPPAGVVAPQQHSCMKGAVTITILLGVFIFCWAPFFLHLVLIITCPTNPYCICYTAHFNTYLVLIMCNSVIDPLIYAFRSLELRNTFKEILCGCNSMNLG
substance,measurement,setting,value
melanocyte concentrating hormone [MCH],increase in ACTH binding,[1],15-100%
same,Kcal consumed within one hour,[2],more than doubling; also recorded: doubling
